Source: patent US7414072B2, “Aryl 5-thio-β-d-glucopyranoside derivatives and therapeutic agents for diabetes containing the same” (Taisho Pharmaceutical Co., Ltd., priority 2002, dated 2008)

| melting point | Structure (SMILES) |
| --- | --- |
| 156.5 to 160 °C | OC[C@H]1S[C@@H](Oc2ccccc2Cc2ccc(N3CCCCC3)cc2)[C@H](O)[C@@H](O)[C@@H]1O [Compound 74, 2′-(4′-piperidinobenzyl)phenyl 5-thio-β-D-glucopyranoside] |
| 79 to 82.5 °C | CC(C)(C)c1ccc(Cc2cc(Cl)ccc2O[C@@H]2S[C@H](CO)[C@@H](O)[C@H](O)[C@H]2O)cc1 [Compound 75, 2′-(4′-t-butylbenzyl)-4′-chlorophenyl 5-thio-β-D-glucopyranoside] |
| 126 to 129 °C | OC[C@H]1S[C@@H](Oc2ccc(Cl)cc2Cc2cc(F)cc(C(F)(F)F)c2)[C@H](O)[C@@H](O)[C@@H]1O [Compound 76, 4′-chloro-2′-(3′-fluoro-5′-trifluoromethylbenzyl)phenyl 5-thio-β-D-glucopyranoside] |
| 128 to 130 °C | OC[C@H]1S[C@@H](Oc2ccc(Cl)cc2Cc2ccccc2CCc2ccccc2)[C@H](O)[C@@H](O)[C@@H]1O [Compound 78] |
| 150.5 to 151.5 °C | OC[C@H]1S[C@@H](Oc2ccc(Cl)cc2Cc2ccccc2Cc2ccccc2)[C@H](O)[C@@H](O)[C@@H]1O [Compound 79] |
| 195.5 to 197 °C | COc1ccc(Cc2cc(Cl)ccc2O[C@@H]2S[C@H](CO)[C@@H](O)[C@H](O)[C@H]2O)c(OC)c1 [Compound 80, 4′-chloro-2′-(2′,4′-dimethoxybenzyl)phenyl 5-thio-β-D-glucopyranoside] |
| 196.5 to 198.5 °C | CCOc1ccccc1Cc1cc(Cl)ccc1O[C@@H]1S[C@H](CO)[C@@H](O)[C@H](O)[C@H]1O [Compound 81, 4′-chloro-2′-(2′-ethoxybenzyl)phenyl 5-thio-β-D-glucopyranoside] |
| 147 to 149 °C | Cc1ccccc1Cc1cc(Cl)ccc1O[C@@H]1S[C@H](CO)[C@@H](O)[C@H](O)[C@H]1O [Compound 82, 4′-chloro-2′-(2′-methylbenzyl)phenyl 5-thio-β-D-glucopyranoside] |
| 183 to 185 °C | COc1ccc(CNC(=O)c2c(O)cccc2O[C@@H]2S[C@H](CO)[C@@H](O)[C@H](O)[C@H]2O)cc1 [Compound 84, 3′-hydroxy-2′-(4′-methoxybenzylaminocarbonyl)phenyl 5-thio-β-D-glucopyranoside] |
| 215.5 to 216 °C | NC(=O)c1ccc(Cc2ccccc2O[C@@H]2S[C@H](CO)[C@@H](O)[C@H](O)[C@H]2O)cc1 [Compound 85, 2′-(4′-carbamoylbenzyl)phenyl 5-thio-β-D-glucopyranoside] |
| 193.5 to 194 °C | CN(C)C(=O)c1ccc(Cc2ccccc2O[C@@H]2S[C@H](CO)[C@@H](O)[C@H](O)[C@H]2O)cc1 [Compound 86, 2′-(4′-N,N-dimethylaminocarbonylbenzyl)phenyl 5-thio-β-D-glucopyranoside] |
| 148 to 148.5 °C | OC[C@H]1S[C@@H](Oc2ccccc2Cc2ccc(C3CC3)cc2)[C@H](O)[C@@H](O)[C@@H]1O [Compound 90, 2′-(4′-cyclopropylbenzyl)phenyl 5-thio-β-D-glucopyranoside] |
| 200 to 202 °C | O=C(Nc1ccccc1)c1cc2ccccc2cc1O[C@@H]1S[C@H](CO)[C@@H](O)[C@H](O)[C@H]1O [Compound 92] |

| Structure (SMILES) | melting point |
| --- | --- |
| CCc1ccc(Cc2ccc(COC(C)=O)cc2O[C@@H]2S[C@H](CO)[C@@H](O)[C@H](O)[C@H]2O)cc1 [Compound 77, 5′-(acetoxymethyl)-2′-(4′-ethylbenzyl)phenyl 5-thio-β-D-glucopyranoside] | 158 to 160 °C |
